For one series, the system named is MDA-MB-231. As to the kind of experiment: Inhibition of cell proliferation, 14C-thymidine incorporation, MDA-MB-231. It is filed as cell-based. To be noted: Homo sapiens. The method, then:
The ability of a test compound to inhibit the proliferation of cell growth was determined by measuring incorporation of ^14C-labelled thymidine into newly synthesized DNA within the cells. This method was used on cell lines derived from carcinomas originating from several tissues such as HeLa cervical adenocarcinoma (American Type Culture Collection (ATCC), Virginia, Cat. #CCL-2), HCT-116 colon carcinoma (CCL-247), MDA-MB-231 (Xenogen Corp.), PC-3 prostate adenocarcinoma (ATCC CRL-1435) and A375 malignant melanoma (ATCC CRL-1619).
Using this method, the effect of a compound on cell growth of cells with many different phenotypes can be determined. Cells were trypsinized and counted and 3000–8000 cells were added to each well of a 96-well CytoStar tissue culture treated scintillating microplate (Amersham #RPNQ0160) in complete medium in a volume of 100 μl. Cells were incubated for 24 hours in complete medium at 37° C. in an atmosphere containing 5% CO2. 1 μL of test compound in 100% DMSO was then added to the wells of the plate. DMSO only was added to control wells. Cells were incubated for 24 more hours in complete medium at 37° C. in an atmosphere containing 5% CO2. […] The degree of methyl ^14C-thymidine incorporation was quantified on a Packard Top Count.
(In general: Dividing cells build labelled thymidine or BrdU into new DNA.)

For another series, the system named is A375 melanoma xenograft. As to the kind of experiment: In vivo inhibition of tumor growth, tumor growth delay method. As to conditions: for MDS to 2.0 g ± SEM (n): A375; for animals survived at day 57: group of six mice; for survival increase: vs control groups. The method, then: The in vivo effect of a compound on the growth of human tumor cells can be evaluated by implanting human tumor cells originating from a variety of different tumor types (such as A375 human melanoma cells) into the hindflank of athymic mice and administering a test compound to the mice.
Female nude mice were implanted subcutaneously with 1 mm^3 A375 melanoma fragments in the flank. Tumors were monitored twice weekly and then daily as the neoplasms reached the desired size range (about 75 mg). […] Estimated tumor weight was calculated using the formula (where w=width and l=length in mm of an A375 melanoma tumor): […]
All treatments were initiated on Day 1 and the study was terminated on Day 57.
The tumor growth delay (TGD) method was used in this study. In the TGD method, each animal was euthanized when its A375 neoplasm reached a size of 2.0 g. Mean Day of Survival (MDS) values were calculated for all groups. The treatment-effected mean “increase in survival” of various groups were compared to each other and to the mean survival times of mice receiving vehicle. The MDS values calculated for each group, based on the calculated day of death of each mouse, is given by the formula:
Time to exceed endpoint (observed)=number of days it takes for each tumor to grow past the endpoint (cut-off) size. Once the tumor reaches the cut-off size, the animal is euthanized. • D2=day animal is euthanized. • D1=last day of caliper measurement before tumor reaches the endpoint. • Wt2=tumor weight (mg) on D2 • Wt1=tumor weight (mg) on D1 • Endpoint weight=predetermined “cut-off” tumor size for the model being used.
Animals were weighed twice weekly during the study. Mice were examined frequently for clinical signs of any adverse, drug-related side effects. Acceptable toxicity for cancer drugs in mice is defined by the NCI as no mean group weight loss of over 20% during the test, and not more than one toxic death among ten treated animals.

These results are taken from patent publication US7205298B2, “Substituted triazine kinase inhibitors” (Janssen Pharmaceutica N.V., priority 2002, dated 2007).

For orientation: IC50 means the midpoint of a concentration-inhibition curve. Read a low IC50 as greater potency.

On to `OCCCNc1cncc(-c2ncnc(Nc3cccc(Cl)c3)n2)c1` [Compound 1, 3-((5-(4-((3-chlorophenyl)amino)-1,3,5-triazin-2-yl)-3-pyridinyl)amino)-1-propanol], for which the 50% inhibitory concentration (IC50) in the series with MDA-MB-231 was 330 nM.
Turning to `OCCCNc1cc(-c2ncnc(Nc3cccc(Cl)c3)n2)ccn1` [Compound 2, 3-((4-(4-((3-chlorophenyl)amino)-1,3,5-triazin-2-yl)-2-pyridinyl)amino)-1-propanol], the entries for the “surviving longer than the PEG vehicle control and Growth Control groups” value with A375 melanoma xenograft (100 mg/kg), in the series with A375 melanoma xenograft (125 mg/kg) and with A375 melanoma xenograft (150 mg/kg) were “about 8 days”, “about 14 days” and “about 12 days”, respectively. Moreover, the “Max % BW loss (day)” value is on record as −17.2% (33) with A375 melanoma xenograft (100 mg/kg i.p. qd×32), −18.8% (29) in the series with A375 melanoma xenograft (125 mg/kg i.p. qd×32) and −17.6% (33) with A375 melanoma xenograft (150 mg/kg i.p. qd×32). Further, the “MDS to 2.0 g ± SEM (n)” value with A375 melanoma xenograft (100 mg/kg i.p. qd×32, female nude mice) was 29.6 days; with A375 melanoma xenograft (100 mg/kg i.p. qd×32, female nude mice, listed as Cpd 2), 29.6 ± 3.1 (6) days; in the series with A375 melanoma xenograft (125 mg/kg i.p. qd×32, female nude mice), 35.2 days; with A375 melanoma xenograft (125 mg/kg i.p. qd×32, female nude mice, listed as Cpd 2), 35.2 ± 3.6 (5) days; with A375 melanoma xenograft (150 mg/kg i.p. qd×32, female nude mice), 33.6 days; with A375 melanoma xenograft (150 mg/kg i.p. qd×32, female nude mice, listed as Cpd 2) it was 33.6 ± 3.0 (4) days. Also, the “animals survived at day 57” value with A375 melanoma xenograft (100 mg/kg) is recorded as “None”; in the series on A375 melanoma xenograft (125 mg/kg), “One out of six”; with A375 melanoma xenograft (150 mg/kg), “One out of six”. In addition, the survival increase entry in the series on A375 melanoma xenograft (100 mg/kg) was “about 37%”; with A375 melanoma xenograft (125 mg/kg) it was “about 63%”; in the series on A375 melanoma xenograft (150 mg/kg), “about 55%”. Also, the “NCI definition for acceptable toxicity of a cancer drug in mice” value with A375 melanoma xenograft (150 and 125 mg/kg dose groups, no mean group weight loss over 20%, not more than one toxic death among ten) is listed as “satisfied the NCI definition for acceptable toxicity”. In the series on A375 melanoma xenograft (high doses of 150 and 125 mg/kg compared), the “efficacy against the A375 melanoma xenograft” value is listed as “approximately equivalent efficacy”.
